ChEMBL document CHEMBL6115043, “Novel 5,6-Fused and 6,6-Fused Bicyclic Compounds as 15-Prostaglandin Dehydrogenase Modulators” (ACS Med Chem Lett, 2025)
pIC50: −log10 of the molar value.

Key:
[1] = target: T1, 15-hydroxyprostaglandin dehydrogenase [NAD(+)] (Homo sapiens, UniProt P15428); assay: Inhibition of 15-PGDH in human A549 cells assessed as increase in IL-1beta-stimulated PGE2 levels measured after 24 hrs by competitive HTRF assay; type: cell-based
T1 sequence (P15428 whole entry): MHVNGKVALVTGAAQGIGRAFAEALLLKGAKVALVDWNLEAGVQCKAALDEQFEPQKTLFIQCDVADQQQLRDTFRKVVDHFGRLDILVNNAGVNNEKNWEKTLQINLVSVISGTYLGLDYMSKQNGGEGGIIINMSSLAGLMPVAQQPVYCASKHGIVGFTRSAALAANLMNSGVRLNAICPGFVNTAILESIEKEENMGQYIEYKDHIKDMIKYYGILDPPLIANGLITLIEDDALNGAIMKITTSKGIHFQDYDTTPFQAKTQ

[2] = target: T1, 15-hydroxyprostaglandin dehydrogenase [NAD(+)]; assay: Inhibition of recombinant human 15-PGDH using PGE2 and beta-NAD+ as substrate preincubated for 15 mins followed by substrate addition and measured after 60 mins

Row | pIC50 [1] | pIC50 [2] | SMILES
1 | 10.30 | – | Cn1cc2cc(-c3ccc4cc([C@]5(O)C[C@@H](C(F)(F)F)C5)sc4n3)cnc2n1
2 | 10.30 | 9.66 | Cn1cc2cc(-c3ccc4nc([C@H](O)C5CC(F)(F)C5)sc4n3)cnc2n1
